# Measured values: ChEMBL document CHEMBL5724914, “Linking interpersonal differences in gut microbiota composition and drug biotransformation activity” (2024)
# Details: human gut metagenome, 24 h, 2 µM
# Also: call rule not given here.
row,Bacterial Biotransformation,Structure (SMILES)
1,Compound metabolized,CC(C)NCC(O)COc1ccc(COCCOC(C)C)cc1.CC(C)NCC(O)COc1ccc(COCCOC(C)C)cc1.O=C(O)/C=C/C(=O)O (stereo not given) [BISOPROLOL FUMARATE]
2,Compound metabolized,CC(C)(C)NC[C@H](O)COc1ccccc1C1CCCC1.CC(C)(C)NC[C@H](O)COc1ccccc1C1CCCC1.O=S(=O)(O)O [PENBUTOLOL SULFATE]

# Experiment: (§1) The drug is tested on Z-001 corresponding to mouse gut metagenome with ENA study accession number: PRJEB37062 and ENA sample accession number: ERS12561801 for biotransformation under anaerobic condition. The drug concentrations were measured over 9 timepoints collected between 0 and 24 hours of incubation by liquid-chromatography-coupled mass spectrometry (LC–MS)
# Details: 2 µM
row,Bacterial Biotransformation,Structure (SMILES)
1,Compound metabolized,CC(C)NCC(O)COc1ccc(COCCOC(C)C)cc1.CC(C)NCC(O)COc1ccc(COCCOC(C)C)cc1.O=C(O)/C=C/C(=O)O (stereo not given) [BISOPROLOL FUMARATE]
2,Compound metabolized,CC(C)(C)NC[C@H](O)COc1ccccc1C1CCCC1.CC(C)(C)NC[C@H](O)COc1ccccc1C1CCCC1.O=S(=O)(O)O [PENBUTOLOL SULFATE]

# Experiment: as §1, with “Z-009” for “Z-001”, “pig” for “mouse”, “ERS12561809” for “ERS12561801”
# Details: 2 µM
row,Bacterial Biotransformation,Structure (SMILES)
1,Compound metabolized,CC(C)NCC(O)COc1ccc(COCCOC(C)C)cc1.CC(C)NCC(O)COc1ccc(COCCOC(C)C)cc1.O=C(O)/C=C/C(=O)O (stereo not given) [BISOPROLOL FUMARATE]
2,Compound metabolized,CC(C)(C)NC[C@H](O)COc1ccccc1C1CCCC1.CC(C)(C)NC[C@H](O)COc1ccccc1C1CCCC1.O=S(=O)(O)O [PENBUTOLOL SULFATE]

# Details: human gut metagenome, 24 h, 2 µM
# Remark: another data set of the same source
row,Bacterial Biotransformation,Structure (SMILES)
1,Compound metabolized,CC(C)NCC(O)COc1ccc(COCCOC(C)C)cc1.CC(C)NCC(O)COc1ccc(COCCOC(C)C)cc1.O=C(O)/C=C/C(=O)O (stereo not given) [BISOPROLOL FUMARATE]
2,Compound metabolized,CC(C)(C)NC[C@H](O)COc1ccccc1C1CCCC1.CC(C)(C)NC[C@H](O)COc1ccccc1C1CCCC1.O=S(=O)(O)O [PENBUTOLOL SULFATE]

# Experiment: as §1, with “WLS-006” for “Z-001”, “human” for “mouse”, “ERS12561741” for “ERS12561801”
# Details: 2 µM
row,Bacterial Biotransformation,Structure (SMILES)
1,Compound metabolized,CC(C)NCC(O)COc1ccc(COCCOC(C)C)cc1.CC(C)NCC(O)COc1ccc(COCCOC(C)C)cc1.O=C(O)/C=C/C(=O)O (stereo not given) [BISOPROLOL FUMARATE]
2,Compound metabolized,CC(C)(C)NC[C@H](O)COc1ccccc1C1CCCC1.CC(C)(C)NC[C@H](O)COc1ccccc1C1CCCC1.O=S(=O)(O)O [PENBUTOLOL SULFATE]

# Experiment: as §1, with “Z-020” for “Z-001”, “rabbit” for “mouse”, “ERS12561819” for “ERS12561801”
# Details: 2 µM
row,Bacterial Biotransformation,Structure (SMILES)
1,Compound NOT metabolized,CC(C)NCC(O)COc1ccc(COCCOC(C)C)cc1.CC(C)NCC(O)COc1ccc(COCCOC(C)C)cc1.O=C(O)/C=C/C(=O)O (stereo not given) [BISOPROLOL FUMARATE]
2,Compound metabolized,CC(C)(C)NC[C@H](O)COc1ccccc1C1CCCC1.CC(C)(C)NC[C@H](O)COc1ccccc1C1CCCC1.O=S(=O)(O)O [PENBUTOLOL SULFATE]

# Experiment: as §1, with “Z-013” for “Z-001”, “rabbit” for “mouse”, “ERS12561813” for “ERS12561801”
# Details: 2 µM
row,Bacterial Biotransformation,Structure (SMILES)
1,Compound NOT metabolized,CC(C)NCC(O)COc1ccc(COCCOC(C)C)cc1.CC(C)NCC(O)COc1ccc(COCCOC(C)C)cc1.O=C(O)/C=C/C(=O)O (stereo not given) [BISOPROLOL FUMARATE]
2,Compound NOT metabolized,CC(C)(C)NC[C@H](O)COc1ccccc1C1CCCC1.CC(C)(C)NC[C@H](O)COc1ccccc1C1CCCC1.O=S(=O)(O)O [PENBUTOLOL SULFATE]

# Details: human gut metagenome, 24 h, 2 µM
# Remark: another data set of the same source
row,Bacterial Biotransformation,Structure (SMILES)
1,Compound NOT metabolized,CC(C)NCC(O)COc1ccc(COCCOC(C)C)cc1.CC(C)NCC(O)COc1ccc(COCCOC(C)C)cc1.O=C(O)/C=C/C(=O)O (stereo not given) [BISOPROLOL FUMARATE]
2,Compound NOT metabolized,CC(C)(C)NC[C@H](O)COc1ccccc1C1CCCC1.CC(C)(C)NC[C@H](O)COc1ccccc1C1CCCC1.O=S(=O)(O)O [PENBUTOLOL SULFATE]

# Details: human gut metagenome, 24 h, 2 µM
# Remark: another data set of the same source
row,Bacterial Biotransformation,Structure (SMILES)
1,Compound metabolized,CC(C)NCC(O)COc1ccc(COCCOC(C)C)cc1.CC(C)NCC(O)COc1ccc(COCCOC(C)C)cc1.O=C(O)/C=C/C(=O)O (stereo not given) [BISOPROLOL FUMARATE]
2,Compound metabolized,CC(C)(C)NC[C@H](O)COc1ccccc1C1CCCC1.CC(C)(C)NC[C@H](O)COc1ccccc1C1CCCC1.O=S(=O)(O)O [PENBUTOLOL SULFATE]

# Details: human gut metagenome, 24 h, 2 µM
# Remark: another data set of the same source
row,Bacterial Biotransformation,Structure (SMILES)
1,Compound metabolized,CC(C)NCC(O)COc1ccc(COCCOC(C)C)cc1.CC(C)NCC(O)COc1ccc(COCCOC(C)C)cc1.O=C(O)/C=C/C(=O)O (stereo not given) [BISOPROLOL FUMARATE]
2,Compound metabolized,CC(C)(C)NC[C@H](O)COc1ccccc1C1CCCC1.CC(C)(C)NC[C@H](O)COc1ccccc1C1CCCC1.O=S(=O)(O)O [PENBUTOLOL SULFATE]

# Details: human gut metagenome, 24 h, 2 µM
# Remark: another data set of the same source
row,Bacterial Biotransformation,Structure (SMILES)
1,Compound NOT metabolized,CC(C)NCC(O)COc1ccc(COCCOC(C)C)cc1.CC(C)NCC(O)COc1ccc(COCCOC(C)C)cc1.O=C(O)/C=C/C(=O)O (stereo not given) [BISOPROLOL FUMARATE]
2,Compound metabolized,CC(C)(C)NC[C@H](O)COc1ccccc1C1CCCC1.CC(C)(C)NC[C@H](O)COc1ccccc1C1CCCC1.O=S(=O)(O)O [PENBUTOLOL SULFATE]

# Experiment: as §1, with “Z-028” for “Z-001”, “ERS12561827” for “ERS12561801”
# Details: 2 µM
row,Bacterial Biotransformation,Structure (SMILES)
1,Compound NOT metabolized,CC(C)NCC(O)COc1ccc(COCCOC(C)C)cc1.CC(C)NCC(O)COc1ccc(COCCOC(C)C)cc1.O=C(O)/C=C/C(=O)O (stereo not given) [BISOPROLOL FUMARATE]
2,Compound NOT metabolized,CC(C)(C)NC[C@H](O)COc1ccccc1C1CCCC1.CC(C)(C)NC[C@H](O)COc1ccccc1C1CCCC1.O=S(=O)(O)O [PENBUTOLOL SULFATE]

# Details: human gut metagenome, 24 h, 2 µM
# Remark: another data set of the same source
row,Bacterial Biotransformation,Structure (SMILES)
1,Compound NOT metabolized,CC(C)NCC(O)COc1ccc(COCCOC(C)C)cc1.CC(C)NCC(O)COc1ccc(COCCOC(C)C)cc1.O=C(O)/C=C/C(=O)O (stereo not given) [BISOPROLOL FUMARATE]
2,Compound metabolized,CC(C)(C)NC[C@H](O)COc1ccccc1C1CCCC1.CC(C)(C)NC[C@H](O)COc1ccccc1C1CCCC1.O=S(=O)(O)O [PENBUTOLOL SULFATE]

# Experiment: as §1, with “Z-024” for “Z-001”, “pig” for “mouse”, “ERS12561823” for “ERS12561801”
# Details: 2 µM
row,Bacterial Biotransformation,Structure (SMILES)
1,Compound metabolized,CC(C)NCC(O)COc1ccc(COCCOC(C)C)cc1.CC(C)NCC(O)COc1ccc(COCCOC(C)C)cc1.O=C(O)/C=C/C(=O)O (stereo not given) [BISOPROLOL FUMARATE]
2,Compound metabolized,CC(C)(C)NC[C@H](O)COc1ccccc1C1CCCC1.CC(C)(C)NC[C@H](O)COc1ccccc1C1CCCC1.O=S(=O)(O)O [PENBUTOLOL SULFATE]

# Details: human gut metagenome, 24 h, 2 µM
# Remark: another data set of the same source
row,Bacterial Biotransformation,Structure (SMILES)
1,Compound metabolized,CC(C)NCC(O)COc1ccc(COCCOC(C)C)cc1.CC(C)NCC(O)COc1ccc(COCCOC(C)C)cc1.O=C(O)/C=C/C(=O)O (stereo not given) [BISOPROLOL FUMARATE]
2,Compound metabolized,CC(C)(C)NC[C@H](O)COc1ccccc1C1CCCC1.CC(C)(C)NC[C@H](O)COc1ccccc1C1CCCC1.O=S(=O)(O)O [PENBUTOLOL SULFATE]

# Experiment: as §1, with “WLS-082” for “Z-001”, “human” for “mouse”, “ERS12561751” for “ERS12561801”
# Details: 2 µM
row,Bacterial Biotransformation,Structure (SMILES)
1,Compound NOT metabolized,CC(C)NCC(O)COc1ccc(COCCOC(C)C)cc1.CC(C)NCC(O)COc1ccc(COCCOC(C)C)cc1.O=C(O)/C=C/C(=O)O (stereo not given) [BISOPROLOL FUMARATE]
2,Compound metabolized,CC(C)(C)NC[C@H](O)COc1ccccc1C1CCCC1.CC(C)(C)NC[C@H](O)COc1ccccc1C1CCCC1.O=S(=O)(O)O [PENBUTOLOL SULFATE]

# Experiment: as §1, with “Z-007” for “Z-001”, “rat” for “mouse”, “ERS12561807” for “ERS12561801”
# Details: 2 µM
row,Bacterial Biotransformation,Structure (SMILES)
1,Compound NOT metabolized,CC(C)NCC(O)COc1ccc(COCCOC(C)C)cc1.CC(C)NCC(O)COc1ccc(COCCOC(C)C)cc1.O=C(O)/C=C/C(=O)O (stereo not given) [BISOPROLOL FUMARATE]
2,Compound NOT metabolized,CC(C)(C)NC[C@H](O)COc1ccccc1C1CCCC1.CC(C)(C)NC[C@H](O)COc1ccccc1C1CCCC1.O=S(=O)(O)O [PENBUTOLOL SULFATE]

# Experiment: as §1, with “Z-027” for “Z-001”, “to” for “to mouse gut”, “ERS12561826” for “ERS12561801”
# Details: 2 µM
row,Bacterial Biotransformation,Structure (SMILES)
1,Compound NOT metabolized,CC(C)NCC(O)COc1ccc(COCCOC(C)C)cc1.CC(C)NCC(O)COc1ccc(COCCOC(C)C)cc1.O=C(O)/C=C/C(=O)O (stereo not given) [BISOPROLOL FUMARATE]
2,Compound NOT metabolized,CC(C)(C)NC[C@H](O)COc1ccccc1C1CCCC1.CC(C)(C)NC[C@H](O)COc1ccccc1C1CCCC1.O=S(=O)(O)O [PENBUTOLOL SULFATE]

# Details: human gut metagenome, 24 h, 2 µM
# Remark: another data set of the same source
row,Bacterial Biotransformation,Structure (SMILES)
1,Compound metabolized,CC(C)NCC(O)COc1ccc(COCCOC(C)C)cc1.CC(C)NCC(O)COc1ccc(COCCOC(C)C)cc1.O=C(O)/C=C/C(=O)O (stereo not given) [BISOPROLOL FUMARATE]
2,Compound metabolized,CC(C)(C)NC[C@H](O)COc1ccccc1C1CCCC1.CC(C)(C)NC[C@H](O)COc1ccccc1C1CCCC1.O=S(=O)(O)O [PENBUTOLOL SULFATE]

# Details: human gut metagenome, 24 h, 2 µM
# Remark: another data set of the same source
row,Bacterial Biotransformation,Structure (SMILES)
1,Compound NOT metabolized,CC(C)NCC(O)COc1ccc(COCCOC(C)C)cc1.CC(C)NCC(O)COc1ccc(COCCOC(C)C)cc1.O=C(O)/C=C/C(=O)O (stereo not given) [BISOPROLOL FUMARATE]
2,Compound metabolized,CC(C)(C)NC[C@H](O)COc1ccccc1C1CCCC1.CC(C)(C)NC[C@H](O)COc1ccccc1C1CCCC1.O=S(=O)(O)O [PENBUTOLOL SULFATE]
